Patent publication US20260234553A1, “COMPOSITIONS COMPRISING SUPRAMOLECULAR ASSEMBLIES OF PEPTIDE AMPHIPHILES AND ORGANIC CATIONS AND METHODS OF USE THEREOF” (Northwestern University, priority 2023, published 2026)
Several values for one entry are separate records, joined by “and”; a condition that tells them apart may be missing. Equal entries are not always repeated. *: point of attachment. Palmitoyl = CCCCCCCCCCCCCCCC(=O)*

Tests used:
PA nanostructures = experiment: 1H DOSY NMR of OC free and with PA; type: binding
Experimental: Binding of organic cations (OCs) to PA. Initial screening of interactions of five different OCs with PA was performed using ^1H NMR spectroscopy in solution (FIG. 53). Here, ^1H signals lineshape from the ^1H NMR spectra of OCs were compared and analyzed against the corresponding ^1H signals from OC-PA samples. It is expected that ^1H signals will experience broadening if binding is occurring. In all cases we observed significant broadening except for tetramethylammonium (OC4), indicating its poor binding to PA nanostructures. ^1H DOSY NMR measurements. Spectra were measured by monitoring the change in intensity of the corresponding resonances as a function of the field gradient strength g (G/cm). A 2D sequence was used for diffusion measurement based on stimulated echo and LED which applies bipolar gradient pulses for diffusion (2 spoil gradients) together with water presaturation during relaxation delay (ledbpgppr2s Bruker sequence). ^1H DOSY data were first processed in Topspin (Fourier transformation, phasing, and baseline correction) and then the peak intensities of the corresponding resonances were extracted and fitted to the Stejskal-Tanner equation (Eq. 1) to give the value of diffusion coefficient D (m^2/s). Solution ^1H DOSY NMR data were fit to Eq. 1 using NMRTools.jl{, #28110}. ^1H HRMAS DOSY NMR data were fit using the Eq. 1 using Dynamics Center 2.6.3 software.
In the Eq. 1, I and I0 are the signal intensities in the presence and absence of gradient pulses, respectively; γ is the gyromagnetic ratio; g and δ are the gradient strength and their duration, respectively; σ=0.9, is the shape factor for the SMSQ gradient used in the experiment; Δ is the time separation between the edges of the gradient pulses.

CA1 pyramidal neurons = experiment: Whole-cell current clamp recordings in organotypic hippocampal slice cultures on PA or ICN layers; type: cell-based, rat; set-up: Rheobase: unit not given beside the values
Experimental: To physiologically dissect the unique responses activated by Na^+-ICN vs. K^+-ICN, we explored the effect of ICNs on the stability of the hippocampal network. This well-established ex vivo model allows for the ability to reliably acquire electrophysiological data using organotypic hippocampal slice cultures from neonatal rats. A PA or ICN layer was prepared on top of Millicell® cell culture inserts, inserted hippocampal organotypic slices (including the entorhinal cortex), and measured multiple electrophysiological parameters from CA1 pyramidal neurons at 6, 10, and 14 DIV using whole-cell current clamp recordings (FIG. 5A). Given the known heterogeneity of the hippocampus, the CA1 pyramidal neuron excitability was measured in the dorsal area.
All experiments were carried out according to the European and institutional guidelines for the care and use of laboratory animals (Council Directive 86/609/EEC and French National Research Council) and approved by the local health authority (Préfecture des Bouches-du-Rhône, Marseille). Young wild type Wistar rats (P5-P10), of either sex, were used to prepare organotypic hippocampal slice cultures. Animals were deeply anesthetized with isoflurane (5%) and killed by decapitation. The brain was removed and both hippocampi were individually dissected. Hippocampal slices (300 μm) were cut using a Vibratome (Leica, VT1200S, Wetzlar, Germany) in a sucrose based cutting solution kept at 3-4° C. containing for 1L: ultrapure water (988.5 mL), sucrose (97 g), NaHCO3 (2.18 g), D-glucose (1.8 g), KCl (0.1 g), CaCl2 1M (1 mL), MgCl2 1M (10 mL). Kynurenic acid and penicillin/streptomycin were added to the solution just before cutting to control cellular electrical activity and avoid contamination during slices preparation respectively. Only dorsal hippocampal slices were collected and placed on 20 mm latex membranes (Millicell, Millipore) inserted into 35 mm Petri dishes containing 1 mL of culture medium and maintained in an incubator at 34° C., 95% 02-5% CO2. The culture medium contained 25 mL MEM, 1.25 mL HBSS, 12.5 mL horse serum, 0.5 mL penicillin/streptomycin, 0.8 mL glucose (1 M), 0.1 mL ascorbic acid (1 mg/mL), 0.4 mL Hepes (1 M), 0.5 mL B27, and 8.95 mL sterile H2O. At least 1 h before collecting the slices, PAs control, OC-PA KCl or OC-PA NaCl were painted on the external surface of the latex membranes by dragging a pipette (50 μL of annealed PAs control or OC-PAs) to extrude a thin coat of material and let organotypic slice cultures grow on it. The culture medium was changed regularly (every 3 days). Organotypic hippocampal slice cultures were used at 6, 10 and 14 DIV to perform electrophysiological recordings and at 10 DIV to perform immunostainings.
To perform electrophysiological recordings, the Millicell membrane containing the slices treated with PAs or OC-PAs was cut with a scalpel and transferred to a recording chamber perfused with oxygenated artificial cerebrospinal fluid (aCSF). This solution was maintained at 31° C. and contained: 125 mM NaCl, 26 mM NaHCO3, 3 mM CaCl2, 2.5 mM KCl, 2 mM MgCl2, 0.8 mM NaH2PO4, 10 mM D-glucose. It was finally equilibrated with 95% O2-5% CO2. Neurons were visualized under an upright microscope (Olympus BX50WI) in phase contrast by infrared video-microscopy using a 60× immersion objective. Whole-cell patch-clamp recordings were obtained from CA1 pyramidal neurons in dorsal hippocampal organotypic cultures at DIV6,10 and 14. Patch-clamp pipettes (7-9 MΩ) were filled with a solution containing (mM): K-gluconate 120, KCl 20, HEPES 10, EGTA 0, MgCl2 2, Na2ATP 2, and NaGTP 0.3 (pH 7.4). CA1 pyramidal neurons were recorded in whole cell current clamp with a MultiClamp 700B amplifier (Axon Instruments), digitalized at 20 kHz with Digidata 1440A (Molecular Devices), low pass filtered at 10 kHz, and acquired with Clampex software (Molecular Devices). For current-clamp recordings, pipette capacitance was compensated, and the bridge was balanced. […]

[1] = Anomalous small angle X-ray scattering (ASAXS) of Rb+ around PA and OC-PA; type: physicochemical
Text: An anomalous small angle X-ray scattering (ASAXS) was used to deduce the spatial distribution of Rb^+ surrounding charged, twisted peptide amphiphile (PA) bilayer. ASAXS relies on the measurements of the subtle changes in the X-ray energy-dependent scattered intensity profiles from the combined counterion (here, Rb^+)-supramolecular assembly system. These changes arise due to strong dispersion corrections [f′(E), f″(E)] to the form factor (scattering/absorption power) of an atom or an ion when the X-ray energy E is close to the binding energy of a core-shell electron in the atom or the ion [(here, Rb^+ K-edge EK=15.2 keV.
Scattered intensity profiles were measured from 1 mM PA in solutions containing either 66 mM RbCl or 50 mM RbCl and 16 mM OC—Cl at 4 X-ray energies below the Rb^+ K edge (Table 8). The non-resonant
The block height h=1 nm is empirically selected for two reasons. First, no artifacts are introduced by this artificial construct in the simulated scattered intensities over the relevant ASAXS q range of 0.05-2 nm^−1 (FIG. 42). Second, this choice keeps the simulations relatively fast. The distribution of Rb^+ is assumed to follow the shape of each parallelepiped block (FIG. 43C), and consists of the condensed Rb^+ layer, which is associated with the 2 ionizable amino acid groups in the outer periphery of the PA bilayer, followed by 12 layers with exponentially decaying Rb^+ concentration. The total number of Rb^+ associated is equal to the parallelepiped charge, which is calculated based on estimates of the area/molecule/leaflet (At=0.5 nm^2) from molecular dynamics (MD) simulations and a fit parameter for the fraction of amino acids that are in the ionized state (a). Based on this model the orientationally averaged non-resonant intensity and the cross-term are calculated and compared to the data in FIG. 42. […]
The SAXS profiles in FIG. 42 were analyzed using the discretized model in FIG. 43. […] The best-fit was then selected based on manual calculations of the differences between the measured and simulated profiles. […]

Compound | diffusion constant D (PA nanostructures; 160.0 mM EMIMCl in PBS pH 7.4, free organic cation) | diffusion constant D (PA nanostructures; 160.0 mM EMIMCl in PBS pH 7.4 in the presence of 10.0 mM PA) | diffusion constant Db (slow diffusing) (PA nanostructures; HRMAS DOSY, pelleted OC-PA) | diffusion constant Df (fast diffusing) (PA nanostructures; HRMAS DOSY, pelleted OC-PA) | rheobase, representative traces (CA1 pyramidal neurons; 6 DIV) | rheobase, representative traces (CA1 pyramidal neurons; 10 DIV) | rheobase, representative traces (CA1 pyramidal neurons; 14 DIV) | Rheobase (CA1 pyramidal neurons; 6 days in vitro) | Spikes evoked at 240 pA (CA1 pyramidal neurons; 6 days in vitro) | Rheobase (CA1 pyramidal neurons; 10 days in vitro) | Spikes evoked at 240 pA (CA1 pyramidal neurons; 10 days in vitro) | Rheobase (CA1 pyramidal neurons; 14 days in vitro) | Spikes evoked at 240 pA (CA1 pyramidal neurons; 14 days in vitro) | Rb^+ concentration near headgroups over bulk Rb^+ concentration ([1]; 1 mM PA in 66 mM RbCl) | degree of ionization a ([1]; 1 mM PA in 66 mM RbCl) | fraction charged (simulated intensities fitted to ASAXS) ([1]; Rb^+ counterions)
CCn1cc[n+](C)c1.[Cl-] [OC, 1-ethyl-3-methyl imidazolium chloride] | (1.179±0.002)·10^−9 m^2s^−1 | (2.900±0.023)·10^−10 m^2s^−1 | (3.326±0.004)·10^−12 m^2s^−1 | (1.630±0.001)·10^−10 m^2s^−1 |  |  |  |  |  |  |  |  |  |  |  | 
C16-VVAAEE (Palmitoyl-VVAAEE-NH2) [peptide amphiphile monomer, C16=palmitoyl, assembles into one-dimensional nanostructures] |  |  |  |  | 90 pA and 80 pA | 140 pA and 130 pA | 130 pA | 95.7 ± 5.6 and 86 ± 4.7 | 16.4 ± 1.1 and 16.2 ± 0.9 | 109.3 ± 4.8 and 121.8 ± 7.7 | 13.2 ± 0.7 and 12.8 ± 0.9 | 127 ± 4.4 and 131 ± 5.4 | 11.1 ± 0.5 and 10.3 ± 0.9 | ~ 40 × | 0.5 | 50%
